The results in this text go back to ChEMBL document CHEMBL3593205, “Total Synthesis of 4,5-Didehydroguadiscine: A Potent Melanogenesis Inhibitor from the Brazilian Medicinal Herb, Hornschuchia obliqua” (J Nat Prod, 2015).

As a reminder, the IC50 is the concentration needed to halve the response being measured.

Data set [1] can be described thus: Potency index, ratio of arbutin IC50 to compound IC50 for inhibition of theophylline-stimulated melanogenesis in mouse B16-4A5 cells. The format is functional.
The nature of data set [2]: Inhibition of theophylline-stimulated melanogenesis in mouse B16-4A5 cells after 72 hrs by microplate reader analysis. The format is functional, cell-based.
A short description of data set [3]: Cytotoxicity against mouse B16-4A5 cells assessed as cell viability at 10 uM after 72 hrs by MTT assay in presence of theophylline relative to control. The format is cell-based. As to conditions: read-out: Activity. Background: Tetrazolium assays rely on reduction of a dye to a coloured formazan, in cell work by metabolically active cells.
Data set [4] in a line: Cytotoxicity against mouse B16-4A5 cells assessed as cell viability at 3 uM after 72 hrs by MTT assay in presence of theophylline relative to control. The conditions noted are these: read-out: Activity. The format is cell-based.

As for `COc1ccc2c(c1)C(C)(C)c1nccc3cc4c(c-2c13)OCO4`, the “Ratio IC50” value in data set [1] came out at 40. In addition, the midpoint of inhibition in data set [2], the IC50, lay at 4.7 µM. Moreover, in data set [3], the viability at 72 h, 10 µM was found to be 86.7%. In addition, in data set [4], the viability at 72 h, 3 µM came out at 95.7%.
